According to US20220071989A1, “METHODS OF TREATING NEGATIVE SYMPTOMS OF SCHIZOPHRENIA USING DEUTERATED DEXTROMETHORPHAN AND QUINIDINE” (AVANIR PHARMACEUTICALS, INC., priority 2019, published 2022):
Where a name gives a salt, the structure may show the parent alone.

What was measured:
[1] = Plasma concentrations of d6-DM, d3-DX, d3-3-MM and Q (Example 1); settings: 2 to 3 hours after morning dose
Method: Plasma samples were separated by centrifugation and then frozen at −20° C. until assayed at the analytical unit.

[2] = PK parameters (Cmax, AUC) estimated from measured drug concentrations with a PK model (Example 1); format: in vivo, human
[3] = system: negative symptoms of schizophrenia; settings: Lee et al. 2015, cited from earlier work
[4] = d6-DM/Q/d6-DM/Q group at Visit 4 (Week 6)
[5] = d6-DM/Q/d6-DM/Q group at Visit 7 (Week 12)
[6] = placebo/d6-DM/Q group at Visit 7 (Week 12)
[7] = Visit 4 (Week 6), d6-DM/Q/d6-DM/Q, All metabolizer types
[8] = Visit 4 (Week 6), d6-DM/Q/d6-DM/Q, Extensive metabolizer subgroup
[9] = Visit 4 (Week 6), d6-DM/Q/d6-DM/Q, Intermediate metabolizer subgroup
[10] = Visit 4 (Week 6), d6-DM/Q/d6-DM/Q, Poor metabolizer subgroup
[11] = Visit 4 (Week 6), d6-DM/Q/d6-DM/Q, Ultra-Rapid metabolizer subgroup
[12] = Visit 7 (Week 12), d6-DM/Q/d6-DM/Q, All metabolizer types
[13] = Visit 7 (Week 12), d6-DM/Q/d6-DM/Q, Extensive metabolizer subgroup
[14] = Visit 7 (Week 12), d6-DM/Q/d6-DM/Q, Intermediate metabolizer subgroup
[15] = Visit 7 (Week 12), d6-DM/Q/d6-DM/Q, Ultra-Rapid metabolizer subgroup
[16] = Visit 7 (Week 12), placebo/d6-DM/Q, All metabolizer types
[17] = Visit 7 (Week 12), placebo/d6-DM/Q, Extensive metabolizer subgroup
[18] = Visit 7 (Week 12), placebo/d6-DM/Q, Intermediate metabolizer subgroup
[19] = Visit 7 (Week 12), placebo/d6-DM/Q, Poor metabolizer subgroup
[20] = subgroup of 13 patients with ALDH2*2 allele

## [2H]C([2H])([2H])Oc1ccc2c(c1)C13CCCCC1C(C2)NCC3 (centres unmarked) [d3-3-MM]
[1]; [4]
  mean plasma concentration, all patients: 20.5 ng/mL
[1]; [5]
  mean plasma concentration, all patients: 19.4 ng/mL
[1]; [6]
  mean plasma concentration, all patients: 23.4 ng/mL

## [2H]C([2H])([2H])N1CCC23CCCCC2C1Cc1ccc(O)cc13 (centres unmarked) [d3-DX, deuterated (d3)-dextrorphan]
[1]; [4]
  mean plasma concentration, all patients: 101.2 ng/mL
[1]; [5]
  mean plasma concentration, all patients: 111.6 ng/mL
[1]; [6]
  mean plasma concentration, all patients: 124.5 ng/mL
[2]; [7]
  AUC, mean (SD): 1142.3 (378.08) h × ng/mL
  AUC, median (min, max): 1083.8 (506, 2091) h × ng/mL
  Cmax, mean (SD): 127.4 (50.25) ng/mL
  Cmax, median (min, max): 121.6 (56, 332) ng/mL
[2]; [8]
  AUC, mean (SD): 1235.3 (389.01) h × ng/mL
  AUC, median (min, max): 1119.6 (729, 2091) h × ng/mL
  Cmax, mean (SD): 144.6 (56.42) ng/mL
  Cmax, median (min, max): 134.9 (72, 332) ng/mL
[2]; [9]
  AUC, mean (SD): 1044.8 (340.96) h × ng/mL
  AUC, median (min, max): 991.6 (506, 1847) h × ng/mL
  Cmax, mean (SD): 111.5 (38.83) ng/mL
  Cmax, median (min, max): 101.2 (56, 195) ng/mL
[2]; [10]
  AUC, mean (SD): 887.2 (na) h × ng/mL
  AUC, median (min, max): 887.2 (887, 887) h × ng/mL
  Cmax, mean (SD): 87.2 (na) ng/mL
  Cmax, median (min, max): 87.2 (87, 87) ng/mL
[2]; [11]
  AUC, mean (SD): 1774.7 (na) h × ng/mL
  AUC, median (min, max): 1774.7 (1775, 1775) h × ng/mL
  Cmax, mean (SD): 193.1 (na) ng/mL
  Cmax, median (min, max): 193.1 (193, 193) ng/mL
[2]; [12]
  AUC, mean (SD): 1142.8 (378.46) h × ng/mL
  AUC, median (min, max): 1087.1 (511, 2115) h × ng/mL
  Cmax, mean (SD): 126.8 (50.32) ng/mL
  Cmax, median (min, max): 123.0 (57, 337) ng/mL
[2]; [13]
  AUC, mean (SD): 1243.6 (394.70) h × ng/mL
  AUC, median (min, max): 1123.4 (740, 2115) h × ng/mL
  Cmax, mean (SD): 144.9 (56.98) ng/mL
  Cmax, median (min, max): 133.9 (76, 337) ng/mL
[2]; [14]
  AUC, mean (SD): 1015.0 (312.22) h × ng/mL
  AUC, median (min, max): 1000.2 (511, 1833) h × ng/mL
  Cmax, mean (SD): 106.3 (33.76) ng/mL
  Cmax, median (min, max): 100.6 (57, 187) ng/mL
[2]; [15]
  AUC, mean (SD): 1783.3 (na) h × ng/mL
  AUC, median (min, max): 1783.3 (1783, 1783) h × ng/mL
  Cmax, mean (SD): 190.3 (na) ng/mL
  Cmax, median (min, max): 190.3 (190, 190) ng/mL
[2]; [16]
  AUC, mean (SD): 1181.4 (515.68) h × ng/mL
  AUC, median (min, max): 1085.8 (651, 3622) h × ng/mL
  Cmax, mean (SD): 126.6 (49.10) ng/mL
  Cmax, median (min, max): 116.4 (65, 318) ng/mL
[2]; [17]
  AUC, mean (SD): 1323.8 (623.07) h × ng/mL
  AUC, median (min, max): 1131.7 (750, 3622) h × ng/mL
  Cmax, mean (SD): 142.5 (56.08) ng/mL
  Cmax, median (min, max): 130.9 (80, 318) ng/mL
[2]; [18]
  AUC, mean (SD): 1014.1 (202.39) h × ng/mL
  AUC, median (min, max): 940.4 (745, 1367) h × ng/mL
  Cmax, mean (SD): 108.0 (24.89) ng/mL
  Cmax, median (min, max): 105.2 (76, 168) ng/mL
[2]; [19]
  AUC, mean (SD): 651.2 (na) h × ng/mL
  AUC, median (min, max): 651.2 (651, 651) h × ng/mL
  Cmax, mean (SD): 65.1 (na) ng/mL
  Cmax, median (min, max): 65.1 (65, 65) ng/mL

## [2H]C([2H])([2H])Oc1ccc2c(c1)[C@]13CCCC[C@@H]1[C@H](C2)N(C([2H])([2H])[2H])CC3 [d6-DM, deuterated [d6]-dextromethorphan hydrobromide]
[1]; [4]
  mean plasma concentration, all patients: 49.7 ng/mL
[1]; [5]
  mean plasma concentration, all patients: 53.2 ng/mL
[1]; [6]
  mean plasma concentration, all patients: 54.0 ng/mL
[2]; [7]
  AUC, mean (SD): 456.2 (362.05) h × ng/mL
  AUC, median (min, max): 355.4 (73, 1793) h × ng/mL
  Cmax, mean (SD): 51.6 (38.53) ng/mL
  Cmax, median (min, max): 40.0 (8, 192) ng/mL
[2]; [8]
  AUC, mean (SD): 333.3 (255.24) h × ng/mL
  AUC, median (min, max): 271.9 (73, 1183) h × ng/mL
  Cmax, mean (SD): 38.2 (27.99) ng/mL
  Cmax, median (min, max): 32.2 (8, 130) ng/mL
[2]; [9]
  AUC, mean (SD): 573.2 (418.66) h × ng/mL
  AUC, median (min, max): 401.7 (139, 1793) h × ng/mL
  Cmax, mean (SD): 63.9 (44.15) ng/mL
  Cmax, median (min, max): 48.1 (17, 192) ng/mL
[2]; [10]
  AUC, mean (SD): 204.6 (na) h × ng/mL
  AUC, median (min, max): 204.6 (205, 205) h × ng/mL
  Cmax, mean (SD): 28.7 (na) ng/mL
  Cmax, median (min, max): 28.7 (29, 29) ng/mL
[2]; [11]
  AUC, mean (SD): 468.0 (na) h × ng/mL
  AUC, median (min, max): 468.0 (468, 468) h × ng/mL
  Cmax, mean (SD): 58.6 (na) ng/mL
  Cmax, median (min, max): 58.6 (59, 59) ng/mL
[2]; [12]
  AUC, mean (SD): 473.4 (375.01) h × ng/mL
  AUC, median (min, max): 369.4 (70, 1810) h × ng/mL
  Cmax, mean (SD): 53.4 (40.09) ng/mL
  Cmax, median (min, max): 42.3 (8, 194) ng/mL
[2]; [13]
  AUC, mean (SD): 336.7 (244.01) h × ng/mL
  AUC, median (min, max): 288.9 (70, 1127) h × ng/mL
  Cmax, mean (SD): 38.7 (26.74) ng/mL
  Cmax, median (min, max): 34.1 (8, 124) ng/mL
[2]; [14]
  AUC, mean (SD): 601.9 (442.90) h × ng/mL
  AUC, median (min, max): 375.7 (132, 1810) h × ng/mL
  Cmax, mean (SD): 67.0 (46.98) ng/mL
  Cmax, median (min, max): 45.9 (16, 194) ng/mL
[2]; [15]
  AUC, mean (SD): 498.8 (na) h × ng/mL
  AUC, median (min, max): 498.8 (499, 499) h × ng/mL
  Cmax, mean (SD): 62.1 (na) ng/mL
  Cmax, median (min, max): 62.1 (62, 62) ng/mL
[2]; [16]
  AUC, mean (SD): 439.6 (248.41) h × ng/mL
  AUC, median (min, max): 413.0 (53, 1081) h × ng/mL
  Cmax, mean (SD): 50.8 (27.44) ng/mL
  Cmax, median (min, max): 47.7 (7, 121) ng/mL
[2]; [17]
  AUC, mean (SD): 404.3 (239.02) h × ng/mL
  AUC, median (min, max): 368.0 (53, 1081) h × ng/mL
  Cmax, mean (SD): 47.2 (26.57) ng/mL
  Cmax, median (min, max): 44.2 (7, 121) ng/mL
[2]; [18]
  AUC, mean (SD): 492.1 (271.83) h × ng/mL
  AUC, median (min, max): 492.9 (124, 945) h × ng/mL
  Cmax, mean (SD): 56.2 (29.94) ng/mL
  Cmax, median (min, max): 56.1 (15, 106) ng/mL
[2]; [19]
  AUC, mean (SD): 427.4 (na) h × ng/mL
  AUC, median (min, max): 427.4 (427, 427) h × ng/mL
  Cmax, mean (SD): 47.9 (na) ng/mL
  Cmax, median (min, max): 47.9 (48, 48) ng/mL

## COc1ccc2c(c1)[C@@]13CCCC[C@H]1[C@@H](C2)N(C)CC3 [dextromethorphan, (+)-3-methoxy-N-methylmorphinan]
[3]; add-on to risperidone
  PANSS and SANS scores, risperidone and dextromethorphan vs. risperidone and placebo (in words): No significant differences
[3]; [20]
  PANSS scores including PANSS negative symptom subscale, dextromethorphan vs. placebo (in words): No significant difference
  total SANS scores, dextromethorphan vs. placebo (in words): significant difference
